In PubChem BioAssay (NCI):
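Compound exposure: 48 hours, 5 concentrations, 96-well plates. Here, GI50 denotes the concentration required for 50% inhibition of growth. TGI: total growth inhibition.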

Tests used:
Experiment in all cases: inhibition of tumour cell growth, NCI panel, 48 h
HS 578T breast = system: HS 578T breast
TK-10 renal = system: TK-10 renal
UACC-62 melanoma = system: UACC-62 melanoma
OVCAR-3 ovarian = system: OVCAR-3 ovarian
SK-OV-3 ovarian = system: SK-OV-3 ovarian
M14 melanoma = system: M14 melanoma
HCC-2998 colon = system: HCC-2998 colon
UO-31 renal = system: UO-31 renal

Structure (SMILES) | GI50 (HS 578T breast) [µM] | TGI (HS 578T breast) [µM] | GI50 (TK-10 renal) [µM] | TGI (TK-10 renal) [µM] | GI50 (UACC-62 melanoma) [µM] | TGI (UACC-62 melanoma) [µM] | GI50 (OVCAR-3 ovarian) [µM] | TGI (OVCAR-3 ovarian) [µM] | GI50 (SK-OV-3 ovarian) [µM] | TGI (SK-OV-3 ovarian) [µM] | GI50 (M14 melanoma) [µM] | TGI (M14 melanoma) [µM] | GI50 (HCC-2998 colon) [µM] | TGI (HCC-2998 colon) [µM] | GI50 (UO-31 renal) [µM] | TGI (UO-31 renal) [µM]
COc1cc2c3c(n(CCCN(C)C)c(=O)c2cc1OC)-c1ccccc1C3=O | 99.7 | > 100 | 38 | > 100 | 1.48 | 19.1 | 5.83 | 54.8 | 29.4 | > 100 | 3.83 | > 88.2 | 3.17 | 18.6 | 16.7 | 97.7
N#C/C(=C/N1CCN(C(=O)c2ccco2)C1=S)C(=O)c1ccccc1 |  |  | 10.5 | 28.8 | 12.9 | 30.3 | 18.2 | 57.2 | 37.4 | > 100 | 14.9 | 36.8 |  |  | 10.2 | 32.5
CCc1ccccc1NC(=O)c1sc2nc3c(cc2c1N)C(=O)CCC3 | 0.398 | > 100 | 23.2 | > 100 | 0.439 | > 100 | 0.383 | 16 | 0.537 | 75.7 | 0.404 | > 100 | 1.67 | > 100 | 14.8 | > 100
COc1cc2ncn(-c3cc(OCCc4ccccc4)c(C(N)=O)s3)c2cc1OC | > 16.1 | > 25 | > 17.2 | > 25 | > 25 | > 25 | > 25 | > 25 | > 25 | > 25 | > 25 | > 25 | > 25 | > 25 | 8.16 | > 25
Cc1cn2c(/C=C3\C(=O)N(C)c4ccc(O)cc43)c(C)nc2s1 | 5.64 | 40.8 | 16.1 | > 100 | 7.61 | > 100 | 2.65 | 17 | 7.52 | 43.2 | 3.43 | 25.1 | 7.37 | 36 | 9.03 | > 100
CC(C)S(=O)(=O)c1ccccc1Nc1nc(Nc2cccc(NC(=O)CN)c2)ncc1Cl | 0.161 | 1.11 | 0.362 | 7.86 | 0.164 | 1.83 | 0.158 | 3.75 | 1.11 | 8.57 | 0.189 | 1.49 | 0.399 | 4.12 | 0.176 | 4.08
COc1cc2c(cc1O)C1Cc3ccc(OC)c(O)c3C(C2)N1C (stereo not given) |  | > 100 |  | > 100 |  | > 100 |  | > 100 |  | > 100 |  | > 100 |  | > 100 |  | > 100
COc1ccc(-c2ccc(/C=N/n3c(C)n[nH]c3=S)o2)c([N+](=O)[O-])c1 | > 100 | > 100 | 69.1 | > 100 | > 100 | > 100 | > 100 | > 100 | > 100 | > 100 | > 100 | > 100 | > 100 | > 100 | > 100 | > 100
Cc1cc(N/N=C/c2nc(-c3ccc(Br)cc3)oc2C)c2cc(Br)ccc2n1 | 4.21 | 26.2 | 1.97 | 3.93 | 1.91 | 4.58 | 2.08 | 4.25 | 16.6 | 30.2 | 3.58 | 13.8 | 7.43 | 20.8 | 13.9 | 26.8
O=C(COc1ccc(/C=C2\CSc3ccccc3C2=O)cc1)Nc1nccs1 | 4.29 | 37.2 | 10.6 | 27.7 | 5.32 | 19 | 2.17 | 4.25 | 22.2 | 42.2 | 9.38 | 21.2 | 4.03 | 17.1 | 2.24 | 6.73
O=c1[nH]cnc2cccc(Cl)c12 |  | > 100 |  | > 100 |  | > 100 |  | > 100 |  | > 100 |  | > 100 |  | > 100 |  | > 100
COc1ccc(Nc2c3ccccc3nc3occ(Cl)c23)cc1 | 0.0237 | 61.3 | 0.0228 | 8.67 | 0.0104 | 42.4 | < 0.01 | < 0.0166 | 0.765 |  | 0.0287 | 19.5 | < 0.01 | 0.0909 | 0.346 | 26.9
NC(CS/C(Cl)=C/Cl)C(=O)O (stereo not given) | 55.1 | > 100 | > 100 | > 100 | 57 | > 100 | 49.2 | > 100 | > 100 | > 100 | 8.19 | > 68.3 | 68.8 | > 100 | 54.8 | > 100
COc1ccc(C(=O)COc2cccc(/C=C3\Oc4ccc5ccccc5c4C3=O)c2)cc1 | 5.39 | 25.8 | 12 | 24.7 | 10.7 | 22.5 | 1.78 | 3.54 |  |  | 4.8 | 18.1 | 15.3 | 28.8 | 6.42 | 23.2
NC(N)=NCCCCCNc1noc(Cc2c[nH]c3cc(Br)ccc23)n1 | 9.08 | 90.2 | 49.4 | > 100 | 7.48 | 28.1 | 4.4 | 33.5 | 24 | > 100 | 10.8 | 44.3 | 6.12 | 23.2 | 20.2 | > 100
C=CCSS/C=C/CS(=O)CC=C (stereo not given) |  | > 77.4 |  | > 100 |  | > 82.7 |  | > 95.9 |  | > 100 |  | 44.1 |  | > 100 |  | > 100
